Reference: US10189887B2, “Polypeptides and uses thereof for reducing CD95-mediated cell motility” (INSERM (INSTITUT NATIONAL DE LA SANTÉ ET DE LA RECHERCHE …, priority 2014, dated 2019)

What was measured:
[1] = tested on: CD95-mediated Ca^2+ response; assay: Calcium response to cl-CD95L in CEM cells; type: cell-based; details: CEM pre-incubated 1 hr, 10 μM peptide, 100 ng/ml cl-CD95L
Experimental: Cells were loaded with Fura2-AM (1 μM) at resting temperature for 30 min in Hank's Balanced Salt Solution (HBSS). After washing with HBSS, the cells were incubated for 15 min in the absence of Fura2-AM to complete de-esterification of the dye. Cells were placed in a thermostated chamber (37° C.) of an inverted epifluorescence microscope (Olympus IX70) equipped with a ×40, UApo/340-1.15 W water-immersion objective (Olympus), and fluorescence micrograph images were captured at 510 nm and at 12-bit resolution by a fast-scan camera (CoolSNAP fx Monochrome, Photometrics). To minimize UV light exposure, 4×4 binning function was used. […]
T cells were loaded with Fura-PE3-AM (1 μM) at room temperature for 30 min in Hank's Balanced Salt Solution (HBSS). […] Cells were placed in the temperature controlled chamber (37° C.) of an inverted epifluorescence microscope (Olympus IX70) equipped with an ×40 UApo/340-1.15 W water-immersion objective (Olympus), and fluorescence micrograph images were captured at 510 nm and 12-bit resolution by a fast-scan camera (CoolSNAP fx Monochrome, Photometrics). […] The Fura-PE3 ratio (Fratio 340/380) images were analyzed offline with Universal Imaging software, including Metafluor and Metamorph. […] Each experiment was repeated 3 times, and the average of more than 20 single-cell traces was analyzed.

[2] = tested on: CD95-mediated Ca^2+ response; assay: Calcium response to cl-CD95L in MEF; type: cell-based; details: MEFs pre-incubated 1 hr, 10 μM peptide; 100 ng/ml cl-CD95L
Experimental: Cells were loaded with Fura2-AM (1 μM) at resting temperature for 30 min in Hank's Balanced Salt Solution (HBSS). After washing with HBSS, the cells were incubated for 15 min in the absence of Fura2-AM to complete de-esterification of the dye. Cells were placed in a thermostated chamber (37° C.) of an inverted epifluorescence microscope (Olympus IX70) equipped with a ×40, UApo/340-1.15 W water-immersion objective (Olympus), and fluorescence micrograph images were captured at 510 nm and at 12-bit resolution by a fast-scan camera (CoolSNAP fx Monochrome, Photometrics). To minimize UV light exposure, 4×4 binning function was used. Fura2-AM was alternately excited at 340 and 380 nm, and ratios of the resulting images (excitations at 340 and 380 nm and emission filter at 520 nm) were produced at constant intervals (5 s or 10 s according to the stimulus). […] Fluorescent images were pseudocolored using the IMD display mode in MetaFluor and assembled without further manipulation in Photoshop (Adobe). Raw data were acquired with MetaFluor and graphed in Origin (OriginLab). […]

murin CD95 = assay: Calcium response in mouse CD95-expressing CEM-IRC cells; type: cell-based; details: CEM-IRC cells reconstituted with wild type mouse CD95
[3] = tested on: Akt serine 473 (PI3K signaling pathway); assay: Akt phosphorylation in PBLs exposed to cl-CD95L; type: cell-based, human; details: peptide pre-incubation
Experimental: Cells were lyzed for 30 minutes at 4° C. in lysis buffer (25 mM HEPES pH 7.4, 1% v/v Triton X-100, 150 mM NaCl, 2 mM EGTA supplemented with a mix of protease inhibitors (Sigma-Aldrich)). Protein concentration was determined by the bicinchoninic acid method (PIERCE, Rockford, Ill., USA) according to the manufacturer's protocol. Proteins were separated on a 12% SDS-PAGE and transferred to a nitrocellulose membrane (GE Healthcare, Buckinghamshire, England). The membrane was blocked 15 minutes with TBST (50 mM Tris, 160 mM NaCl, 0.05% v/v Tween 20, pH 7.8) containing 5% w/v dried skimmed milk (TBSTM). Primary antibody was incubated overnight at 4° C. in TBSTM. The membrane was intensively washed (TBST) and then the peroxydase-labeled anti-rabbit or anti-mouse (SouthernBiotech, Birmingham, Ala., US) was added for 45 minutes. The proteins were visualized with the enhanced chemiluminescence substrate kit (ECL, GE Healthcare).

[4] = tested on: apoptotic signaling pathway; assay: CD95 apoptotic signaling pathway; type: cell-based; details: TAT-CID treatment
[5] = tested on: PLCγ1-dependent Ca^2+ response to TCR stimulation; assay: Ca^2+ response to TCR stimulation (selectivity); type: cell-based; details: TAT-CID pretreatment
Experimental: T cells were loaded with Fura-PE3-AM (1 μM) at room temperature for 30 min in Hank's Balanced Salt Solution (HBSS). After washing, the cells were incubated for 15 min in the absence of Fura-PE3-AM to complete de-esterification of the dye. Cells were placed in the temperature controlled chamber (37° C.) of an inverted epifluorescence microscope (Olympus IX70) equipped with an ×40 UApo/340-1.15 W water-immersion objective (Olympus), and fluorescence micrograph images were captured at 510 nm and 12-bit resolution by a fast-scan camera (CoolSNAP fx Monochrome, Photometrics). To minimize UV light exposure, a 4×4 binning function was used. Fura-PE3 was alternately excited at 340 and 380 nm, and the ratios of the resulting images (emission filter at 520 nm) were produced at constant intervals (10 seconds). The Fura-PE3 ratio (Fratio 340/380) images were analyzed offline with Universal Imaging software, including Metafluor and Metamorph. Fratio reflects the intracellular Ca^2+ concentration changes. Each experiment was repeated 3 times, and the average of more than 20 single-cell traces was analyzed.

Th17 cell accumulation = assay: In vivo administration of cl-CD95L: cell accumulation in peritoneal cavity and spleen; parameters: species or system C57BL/6 mice; details: 24 hours later
Experimental: Female C57BL/6 mice (Harlan UK) aged between 8-10 weeks were placed in groups of 6 and administered IP. Twenty-four hours following injection, mice were sacrificed and periteonial cavities were washed with 5 ml of PBS/2% FCS, blood smears were prepared, and spleens were collected. Blood smears and cytospins of periteonal cells (PECs) were stained with Giemsa and differential counts performed. Single cell suspensions of spleens and PECs were prepared, cell counts performed, CD4+CD62− T-cells were isolated with Miltenyi microbeads and number of cells determined by trypan blue exclusion. For experiments where animals received TAT-mCID or control peptides, 800 μg (40 mg/kg) was injected IP 2 hrs prior to administration of cl-CD95L. All mouse experiments were performed under ethical approval from the University of Nottingham local animal ethics committee and adhering to UK Home Office guidelines under the Project License 40/3412.
Single cell suspensions of spleens and PECs were prepared as described above. RNA was extracted from CD4 T-cells using phenol/chloroform. cDNA was prepared using the Promega GO-Script Reverse Transcription Kit and used in Real-Time PCR. Briefly, cDNA samples were subject to Taqman assay performed on a Roche Lightcycler. Results are reported as expression levels were calculated using the Δct method relative to HPRT.

## TAT-CID: cell penetrating peptide linking the 36-amino acid-stretch of CID (CD95 residues 175 to 210) to the HIV-TAT sequence; SEQ ID NO: 6 (RKKRRQRRRKRKEVQKTCRKHRKENQGSHESPTLNPETVAINLSD; TAT-CID)
[1]
  calcium response to cl-CD95L: abolished the induction of the CD95-mediated Ca^2+ signal
[1]; listed as TAT CID 175-210
  calcium response to cl-CD95L: completely abolished the calcium response
[2]
  initial phase of the calcium response to cl-CD95L: blocked it
Murin CD95
  CD95-mediated Ca^2+ response: failed to inhibit the CD95-mediated Ca^2+ response
[3]
  Akt phosphorylation at serine 473: inhibited Akt phosphorylation at its serine 473
[4]
  execution of the apoptotic signaling pathway: did not affect the execution of the apoptotic signaling pathway
[5]
  PLCγ1-dependent Ca^2+ response to TCR stimulation: did not alter this signal
Th17 cell accumulation; 40 mg/kg two hours prior to IP cl-CD95L (200 ng)
  total cell counts from the PEC (accumulation of T lymphocytes): abolished the CD95-mediated accumulation of T lymphocytes
Th17 cell accumulation; 40 mg/kg two hours prior to IP cl-CD95L (200 ng), ELISA
  IL17 production in the peritoneal cavity: prevented
Th17 cell accumulation; 40 mg/kg two hours prior to IP cl-CD95L
  levels of IFN-γ versus control peptide: no differences were noted
